Assays:
[1] = test system: penetrating ballistic brain injury rodent model; assay: Penetrating ballistic brain injury rodent model of traumatic brain injury; format: in vivo; details: in 6% CAPTISOL; low (2.5 then 1.25 mg/kg/hr) and high (5.0 then 2.50 mg/kg/hr) dose groups, 5 day infusion
Excerpt: FIG. 5A depicts the latency to fall period (seconds) in a penetrating ballistic brain injury rodent model of traumatic brain injury in both the low and high dose groups progesterone in 6% CAPTISOL®. FIG. 5B depicts the mean motor score in a penetrating ballistic brain injury rodent model of traumatic brain injury in both the low and high dose groups progesterone in 6% CAPTISOL®.
Progesterone in 6% CAPTISOL® rescued motor impairment in a penetrating ballistic brain injury rodent model of traumatic brain injury in both the low and high dose groups (FIG. 5A and FIG. 5B). Progesterone was administered via a bolus loading dose followed by a 5 day continuous infusion where progesterone was tapered over the last 24 hours every 8 hrs by 25%. The low dose group received 2.5 mg/kg/hr for a 1 hr bolus infusion followed by a maintenance dose of 1.25 mg/kg/hr over 5 days with the last 24 hours being a taper. The high dose group received 5.0 mg/kg/hr for a 1 hr bolus infusion followed by a maintenance dose of 2.50 mg/kg/hr over 5 days with the last 24 hours being a taper.

[2] = test system: PTZ-treated C57BL6/J mice; assay: PTZ (pentylenetetrazol) seizure model, prevention of status epilepticus; format: in vivo; details: 3, 10, 30 mg/kg IP in 15% β-Cyclodextrin; PTZ 85 mg/kg IP; relative to vehicle-treated control
Method: FIG. 2A is a graph depicting the seizure rank in PZT treated C57BL6/J mice intraperitoneally administered 3, 10, 30 mg/kg allopregnanolone in 15% β-Cyclodextrin. FIG. 2B is graph depicting the latency to death period in PZT treated C57BL65 mice intraperitoneally administered 3, 10, 30 mg/kg allopregnanolone in 15% β-Cyclodextrin.
(§1) Plasma levels of three animals in each Allopregnanolone treatment group were collected randomly at completion of study and analyzed by LC-MS/MS. Bioanalytical measures are indicated in ng/mL (FIG. 2A). Data are presented as mean+/−SEM. *P<0.05 indicate a statistically significant difference relative to vehicle control by Fisher's PLSD. Valproate 400 mg/kg was used as a positive control in the study.

[3] = Plasma and brain exposure by LC/MS-MS after single IM or IV dose; details: 30% CAPTISOL, SD rats
Method: FIG. 4A depicts the plasma exposure profiles of allopregnanolone measured by LC/MS-MS after single intramuscular (10 mg/kg) or intravenous (5 mg/kg) allopregnanolone dose in 30% CAPTISOL® in SD rats. FIG. 4B depicts the brain exposure profiles of allopregnanolone measured by LC/MS-MS after single intramuscular (10 mg/kg) or intravenous (5 mg/kg) allopregnanolone dose in 30% CAPTISOL® in SD rats.
The plasma and brain exposure profiles of Allopregnanolone were measured by LC/MS-MS after single intramuscular (IM) (10 mg/kg) or intravenous (IV) (5 mg/kg) dose in 30% CAPTISOL® in SD rats. […] N=2/time point. Error bars, SEM (FIGS. 4A and 4B).

Fmr1 KO mice = assay: Audiogenic seizure (AGS) status epilepticus rescue in Fmr1 knockout mice; format: in vivo; details: 3, 10, 30 mg/kg IP in 30% b-Cyclodextrin; relative to vehicle treated control
Method: FIG. 1A is a bar graph depicting the percent seizure in fmr1 KO mice intraperitoneally administered 3, 10, 30 mg/kg allopregnanolone in 30% β-Cyclodextrin. FIG. 1B is a bar graph depicting the percent survival in fmr1 KO mice intraperitoneally administered 3, 10, 30 mg/kg allopregnanolone in 30% β-Cyclodextrin.
as §1, with “six” for “three”, “1A).” for “2A).”, “MPEP 30” for “Valproate 400”

Question: With CC(=O)[C@H]1CC[C@H]2[C@@H]3CCC4=CC(=O)CC[C@]4(C)[C@H]3CC[C@]12C [Progesterone, pregn-4-ene-3,20-dione] as the compound, how does the “motor impairment (latency to fall, mean motor score)” value [1] read?
Answer: rescued

Question: With CC(=O)[C@H]1CC[C@H]2[C@@H]3CC[C@H]4C[C@H](O)CC[C@]4(C)[C@H]3CC[C@]12C [Allopregnanolone, 3 alpha-hydroxy-5 alpha-pregnan-20-one] as the compound, how does the “Latency to Death” value [2] read?
Answer: increase

Question: And the Seizure rank [2]?
Answer: significant decrease

Question: And the “exposure in plasma, IM (10 mg/kg) relative to IV (5 mg/kg) dose” value ([3]; 0.5-2 hr)?
Answer: 671-916%

Question: What about the “exposure in brain, IM (10 mg/kg) relative to IV (5 mg/kg) dose” value ([3]; 1 hr) of the same compound?
Answer: 506%

Question: And the “Percent Seizure” value (Fmr1 KO mice)?
Answer: significant decrease

Question: And the “Percent Survival” value (Fmr1 KO mice)?
Answer: increase

From US11426417B2, “Neuroactive steroid formulations and methods of treating CNS disorders” (Sage Therapeutics, Inc., priority 2012, dated 2022)
